# In ChEMBL document CHEMBL1135951, “Potential anxiolytic agents. Part 4: novel orally-active N(5)-substituted pyrido[1,2-a]benzimidazoles with high GABA-A receptor affinity” (Bioorg Med Chem Lett, 2002):
# pIC50: −log10 of the molar value.
# Experiments:
# Mus musculus [1] = test: Effective dose required for inhibition of pentylenetetrazole (PTZ)-induced seizures in mice intraperitoneally; type: functional; conditions: ip
# [2] = biological target: GABA-A receptor; anion channel; test: In vitro affinity for BZD site on GABA-A receptor from rat cerebral cortex using radioligand [3H]flunitrazepam; type: tissue-based
# Mus musculus [3] = species on record: Mus musculus; test: Effective dose required for inhibition of pentylenetetrazole (PTZ)-induced seizures in mice perorally; type: functional; conditions: po
# [4] = biological target: T1, GABA-A receptor; anion channel (Rattus norvegicus) (UniProt O09028+P15431+P18506+P18508+P19969+P20236+P23574+P23576+P28471+P28473+P30191+P62813+P63079+P63138+Q91ZM7+Q9ES14); test: Ratio of the binding in the absence and presence of GABA was determined.; type: protein-complex assay
# Rattus norvegicus [5] = species on record: Rattus norvegicus; test: Minimum effective dose required for anticonflict in rat perorally; type: functional; conditions: po, read-out: MED
# [6] = biological target: T1, GABA-A receptor; anion channel (Rattus norvegicus); test: Minimum effective dose required for anticonflict in rat intraperitoneally; type: functional
# Rattus norvegicus [7] = test: In vivo minimum effective dose required for anticonflict in rat intraperitoneally; type: functional
# Rattus norvegicus [8] = test: In vivo minimum effective dose required for potentiation of EtOH-induced sleep time in rat; type: functional
# Mus musculus [9] = species on record: Mus musculus; test: animal or person; conditions: po
# Mus musculus [10] = test: Effective dose required for motor impairment in the horizontal screen in mouse intraperitoneally; type: functional
# Mus musculus [11] = species on record: Mus musculus; test: animal or person; conditions: ip
# Rattus norvegicus [12] = species on record: Rattus norvegicus; test: animal or person; conditions: po, read-out: MED
# Description: Minimum effective dose required for anticonflict in rat after peroral administration of the compound
# Rattus norvegicus [13] = species on record: Rattus norvegicus; test: animal or person; conditions: ip, read-out: MED
# Description: Minimum effective dose required for anticonflict in rat after intraperitoneal administration of the compound
# Rattus norvegicus [14] = test: In vivo minimum effective dose required for anticonflict effect in rat perorally; type: functional
# Mus musculus [15] = test: In vivo effective dose required for inhibition of pentylenetetrazole (PTZ)-induced seizures in mice intraperitoneally; type: functional
# Mus musculus [16] = species on record: Mus musculus; test: Effective dose required for motor impairment in the horizontal screen in mouse perorally; type: functional
# Mus musculus [17] = test: In vivo effective dose required for inhibition of pentylenetetrazole (PTZ)-induced seizures in mice perorally; type: functional
# Rattus norvegicus [18] = species on record: Rattus norvegicus; test: Minimum effective dose required for anticonflict in rat perorally; value ranges from 1 to 3; type: functional; conditions: po, read-out: MED
# Mus musculus [19] = species on record: Mus musculus; test: Effective dose required for inhibition of pentylenetetrazole (PTZ)-induced seizures in mice perorally; value ranges from 0.3 to 3; type: functional; conditions: po
# Mus musculus [20] = species on record: Mus musculus; test: Ratio of effective dose required for motor impairment in the horizontal screen to the inhibition of pentylenetetrazole (PTZ)-induced seizures in mice; type: functional
# Rattus norvegicus [21] = species on record: Rattus norvegicus; test: Ratio of minimum effective dose for potentiation of EtOH-induced sleep time to anticonflict effect in rat; type: functional
# [22] = Mus musculus, ip, read-out: ED50
smiles,measurement,setting,value
CCOCN1C2=C(C(=O)Nc3ccccc3F)C(=O)CCN2c2c1ccc(F)c2F,ED50,Mus musculus [1],1 mg/kg
same,pIC50,[2],6.90
same,ED50,Mus musculus [3],> 30 mg/kg
same,GABA shift,[4],1.7
same,minimal effective dose,Rattus norvegicus [5],> 10 mg/kg
COCCNCCN1C2=C(C(=O)Nc3ccccc3F)C(=O)CCN2c2ccc(F)cc21,MED,[6],10 mg/kg
same,ED50,Mus musculus [1],1 mg/kg
same,pIC50,[2],8.13
same,ED50,Mus musculus [3],1 mg/kg
same,GABA shift,[4],1.8
same,minimal effective dose,Rattus norvegicus [5],10 mg/kg
O=C1CCN2C(=C1C(=O)Nc1ccccc1F)N(CCCO)c1cc(F)ccc12,MED,[6],10 mg/kg
same,ED50,Mus musculus [1],0.1 mg/kg
same,pIC50,[2],8.96
same,ED50,Mus musculus [3],0.5 mg/kg
same,GABA shift,[4],1.8
same,minimal effective dose,Rattus norvegicus [5],10 mg/kg
CN(C)c1ccc(CCN2C3=C(C(=O)Nc4ccccc4F)C(=O)CCN3c3ccc(F)cc32)cc1,MED,[6],> 10 mg/kg
same,ED50,Mus musculus [1],1 mg/kg
same,pIC50,[2],8.07
same,ED50,Mus musculus [3],< 30 mg/kg
same,GABA shift,[4],1.3
CCOCN1C2=C(C(=O)Nc3ccccc3F)C(=O)CCN2c2ccc(F)c(F)c21,ED50,Mus musculus [1],< 1 mg/kg
same,pIC50,[2],9.30
same,ED50,Mus musculus [3],< 3 mg/kg
same,GABA shift,[4],1.7
same,minimal effective dose,Rattus norvegicus [5],1 mg/kg
CN1C(=O)CN=C(c2ccccc2)c2cc(Cl)ccc21 [DIAZEPAM],minimal effective dose,"Rattus norvegicus [7]; Rattus norvegicus, ip, read-out: MED",5 mg/kg
same,minimal effective dose,"Rattus norvegicus [8]; Rattus norvegicus, read-out: MED",5 mg/kg
same,ED50,Mus musculus [9],0.5 mg/kg
same,ED50,Mus musculus [10]; [22],0.1 mg/kg
same,ED50,Mus musculus [11],0.11 mg/kg
same,minimal effective dose,Rattus norvegicus [12],> 10 mg/kg
same,minimal effective dose,Rattus norvegicus [13],5 mg/kg
same,minimal effective dose,"Rattus norvegicus [14]; Rattus norvegicus, po, read-out: MED",5 mg/kg
same,ED50,Mus musculus [15]; [22],0.3 mg/kg
same,ED50,"Mus musculus [16]; Mus musculus, po, read-out: ED50",6.3 mg/kg
same,ED50,Mus musculus [17]; po,0.5 mg/kg
CCOCCCN1C2=C(C(=O)Nc3ccccc3F)C(=O)CCN2c2ccc(F)cc21,ED50,Mus musculus [1],≤ 1 mg/kg
same,pIC50,[2],9.52
same,ED50,Mus musculus [3],0.3 mg/kg
same,GABA shift,[4],1.6
same,minimal effective dose,Rattus norvegicus [5],1 mg/kg
CCOCN1C2=C(C(=O)Nc3ccc(O)cc3F)C(=O)CCN2c2ccc(F)cc21,MED,[6],1 mg/kg
same,pIC50,[2],8.85
same,GABA shift,[4],2
same,minimal effective dose,Rattus norvegicus [18],1 mg/kg
same,ED50,Mus musculus [19],0.3 mg/kg
O=C1CCN2C(=C1C(=O)Nc1ccccc1F)N(CCO)c1cc(F)ccc12,MED,[6],10 mg/kg
same,ED50,Mus musculus [1],≤ 1 mg/kg
same,pIC50,[2],8.92
same,ED50,Mus musculus [3],< 30 mg/kg
same,GABA shift,[4],2.7
same,minimal effective dose,Rattus norvegicus [5],> 10 mg/kg
CCOCN1C2=C(C(=O)Nc3ccccc3F)C(=O)CCN2c2cc3ccccc3cc21,ED50,Mus musculus [1],< 1 mg/kg
same,pIC50,[2],8.66
same,ED50,Mus musculus [3],> 30 mg/kg
same,GABA shift,[4],1.4
same,minimal effective dose,Rattus norvegicus [5],> 10 mg/kg
CCOCN1C2=C(C(=O)Nc3c(F)cccc3F)C(=O)CCN2c2ccc(F)cc21,MED,[6],> 10 mg/kg
same,ED50,Mus musculus [1],1 mg/kg
same,pIC50,[2],9.22
same,ED50,Mus musculus [3],3 mg/kg
same,GABA shift,[4],1.6
same,minimal effective dose,Rattus norvegicus [5],> 10 mg/kg
CCOCN1C2=C(C(=O)Nc3ccc(OC)cc3F)C(=O)CCN2c2ccc(F)cc21,MED,[6],0.1 mg/kg
same,pIC50,[2],9.40
same,ED50,Mus musculus [3],0.3 mg/kg
same,GABA shift,[4],2.2
same,minimal effective dose,Rattus norvegicus [5],0.03 mg/kg
COCCOCN1C2=C(C(=O)Nc3ccccc3F)C(=O)CCN2c2ccc(F)cc21,MED,Rattus norvegicus [7],<=10
same,MED,Rattus norvegicus [8],3
same,Ratio,Mus musculus [20],300
same,ED50,Mus musculus [10],0.07
same,MED,[6],< 10 mg/kg
same,ED50,Mus musculus [1],0.003 mg/kg
same,pIC50,[2],9.10
same,Ratio,Rattus norvegicus [21],1
same,ED50,Mus musculus [3],0.1 mg/kg
same,GABA shift,[4],2.2
same,minimal effective dose,Rattus norvegicus [5],3 mg/kg
same,MED,Rattus norvegicus [14],3
same,ED50,Mus musculus [15],0.003
same,ED50,Mus musculus [16],30
same,ED50,Mus musculus [17],0.1
O=C1CCN2C(=C1C(=O)Nc1ccccc1F)N(CC1CCCO1)c1cc(F)ccc12 (stereo unspecified),ED50,Mus musculus [1],≤ 1 mg/kg
same,pIC50,[2],8.64
same,ED50,Mus musculus [3],3 mg/kg
same,GABA shift,[4],2.2
same,minimal effective dose,Rattus norvegicus [5],3 mg/kg
CCOCN1C2=C(C(=O)Nc3cccs3)C(=O)CCN2c2ccc(F)cc21,ED50,Mus musculus [1],≤ 1 mg/kg
same,pIC50,[2],9.00
same,ED50,Mus musculus [3],0.2 mg/kg
same,GABA shift,[4],2.1
same,minimal effective dose,Rattus norvegicus [5],3 mg/kg
CCOCN1C2=C(C(=O)Nc3ccsc3)C(=O)CCN2c2ccc(F)cc21,ED50,Mus musculus [1],≤ 1 mg/kg
same,pIC50,[2],9.00
same,ED50,Mus musculus [3],< 0.2 mg/kg
same,GABA shift,[4],1.7
same,minimal effective dose,Rattus norvegicus [5],0.3 mg/kg
NCCN1C2=C(C(=O)Nc3ccccc3F)C(=O)CCN2c2ccc(F)cc21,MED,[6],10 mg/kg
same,ED50,Mus musculus [1],0.3 mg/kg
same,pIC50,[2],8.29
same,ED50,Mus musculus [3],10 mg/kg
same,GABA shift,[4],2.7
same,minimal effective dose,Rattus norvegicus [5],10 mg/kg
COC(=O)OCCN1C2=C(C(=O)Nc3ccccc3F)C(=O)CCN2c2ccc(F)cc21,ED50,Mus musculus [1],≤ 1 mg/kg
same,pIC50,[2],9.52
same,ED50,Mus musculus [3],3 mg/kg
same,GABA shift,[4],2.2
same,minimal effective dose,Rattus norvegicus [5],3 mg/kg
